For this test, the system named is Staphylococcus aureus ATCC 29213. Briefly: Macrodilution MIC test (CLSI). Particulars: for MIC of the antimicrobial not combined: alone. The class given is cell-based. Here is the method: A macrodilution test was performed to determine the MIC for the different combinations, following the recommendations from the CLSI ([47]).
Aloe vera gel extract (1,200 mg/ml) was diluted in Muller-Hinton II (Cation Adjusted) Broth (MHBCA) from BD® (Franklin Lakes, NJ, USA) up to a range of concentrations from 150 to 1,200 mg/ml. In addition, the standard solutions of cloxacillin and ceftiofur were diluted in MHBCA to prepare 2-fold serial dilutions at a concentrations range of 0.015–128 μg/ml.
Staphylococcus aureus ATCC 29213 (KWIK-STIK) was sourced from Microbiologics® (St. Cloud, MN, USA) and used to test the MIC for the different combinations of Aloe vera and cloxacillin or ceftiofur. First, S. aureus was rehydrated with Trypticase™ Soy Broth from BD® (Franklin Lakes, NJ, USA). Then, these bacteria were cultured in the Trypticase™ Soy Broth from BD® (Franklin Lakes, NJ, USA) with 5% sheep defibrinated blood (Franklin Lakes, NJ, USA) at an incubation temperature of 36 ± 1°C for 24 h. Once incubation ended, bacteria were preserved at −80°C using cryobank vials, while waiting for further processing. […] These cultured bacteria were then suspended in MHBCA from BD® (Franklin Lakes, NJ, USA), and the optical density was adjusted according to the McFarland Standard Solution to standardize the number of bacteria. From this broth, dilutions containing 5 × 10^5 UFC/ml were incubated along with dilutions of a combination of Aloe vera extract and antimicrobials. […] Additionally, S. aureus bacteria were incubated separately, in different tubes, with the extract, cloxacillin, and ceftiofur dilutions.

These results are taken from publication PMC8019741, “Efficacy Prediction of Four Pharmaceutical Formulations for Intramammary Administration Containing Aloe vera (L.) Burm. f. Combined With Ceftiofur or Cloxacillin in Lactating Cows as an Alternative Therapy to Treat Mastitis Caused by Staphylococcus aureus” (Frontiers in Veterinary Science, 2021).

Consider `O=C1c2c(O)cccc2C([C@@H]2O[C@H](CO)[C@@H](O)[C@H](O)[C@H]2O)c2cc(CO)cc(O)c21` (stereo partly drawn) [aloin], for which the minimal inhibitory concentration (MIC) (Staphylococcus aureus, ATCC29213, calculated from the MIC of Aloe vera in the combination and the concentration of aloin A + aloin B in the extract) was 3.66 ng/mL.
Turning to `CO/N=C(\C(=O)N[C@@H]1C(=O)N2C(C(=O)O)=C(CSC(=O)c3ccco3)CS[C@H]12)c1csc(N)n1` [ceftiofur], the “MIC of the antimicrobial not combined” value amounted to 0.25 µg/mL.
Regarding `Cc1onc(-c2ccccc2Cl)c1C(=O)N[C@@H]1C(=O)N2[C@@H]1SC(C)(C)[C@@H]2C(=O)O` [cloxacillin], the “MIC of the antimicrobial not combined” value was 0.25 µg/mL.

As a reminder, the MIC is the smallest concentration in the dilution series that meets the test's criterion for growth inhibition.
